± gives the expanded uncertainty stated by the source.
How the values were obtained:
[1] = Molar enthalpy of transition or fusion; conditions: Crystal; Adiabatic calorimetry
[2] = Crystal; Adiabatic calorimetry

Molar enthalpy of transition or fusion [1]: 1.47 ± 0.0225 kcal/mol
Normal melting temperature [2]: 3.68 ± 0.05 °C
Structure (SMILES): [2H]O[2H] [water-d2]
